Reference: US20240109877A1, “PYRIMIDINES FOR DEGRADING BRUTON'S TYROSINE KINASE” (AbbVie Inc., priority 2022, published 2024)

Columns and labels:
[1] = molecular target: BTK protein in human whole blood (Homo sapiens (Human), UniProt Q06187); test: Btk protein in human whole blood MSD ELISA based assay (Btk degradation); assay type: cell-based; conditions: human whole blood from healthy donors, 6 hours at 37° C., half maximal degradation concentration; read-out: hWB BTK DC50
Experimental: Btk protein degradation was tested using an Meso Scale Discovery-ELISA system (MSD-ELISA): (1) Test compounds were added to human whole blood; (2) human whole blood cells treated with test compounds were lysed; (3) lysed cells were treated with capture antibody, an antibody to Btk; (4) lysed cells were treated with […] to Btk; and (5) lysed cells were treated with anti-mouse antibody (tagged).
Specifically, about 80 μl of fresh human whole blood from healthy donors was transferred into each well of a 96-well V-bottom plate (Costar, Cat No.3894). Using a TECANTM D300e Digital Dispenser (Tecan)), 1:4 serially diluted compounds [(8 pt assay) in DMSO solution (final 0.2%) starting at 3 μM top concentration], were added in duplicate. Thereafter, plates were placed in a 37° C. incubator and incubated for 6 hours.
At the end of incubation, 80 μl of 2× CST lysis buffer (Cell Signaling Technology, Cat No. 9803), prepared from a 10× stock solution, was added per well to lyse the blood. Plates were then sealed with a plate sealer and the samples were frozen overnight at −80° C.
Total amount of BTK protein remaining in the blood samples after compound treatment was measured using MSD-ELISA. After thawing the frozen plates, blood lysates were mixed thoroughly and transferred to small spot high-bind MSD plates (Meso Scale Discovery, Cat No. L45XB-3) and coated with capturing antibody, rabbit anti-human BTK (D3H5) (Cell Signaling Technology, Cat No. 8547CF). Thereafter, primary detection antibody, mouse anti-human BTK monoclonal antibody, (BD Biosciences, Cat No. 611117) and secondary detection antibody, anti-mouse SULFO-TAG (Meso Scale Discovery, Cat No. R32AC-1) were added. The assay plates were read on an MSD S600 plate reader by the addition of 2× MSD read buffer (Meso Scale Discovery, R92TC-1). All reagent transfers, including blood lysis, was conducted using a Biomed i7 liquid handler. From the dose response curves, DC50 values were calculated by averaging data from duplicate experiments. and Curve fitting was done by non-linear regression using GraphPad Prism. The DC50 values are reported in Table 2 in the hWB BTK DC50 (nM) column The Dmax values represent the maximum amount of BTK degradation observed upon compound treatment compared to DMSO only treated samples. The dMax (%) values are reported in Table 2 in the hWB BTK dMax (%) column.

[2] = molecular target: His-tagged Cereblon/DDB1 complex (Homo sapiens (Human), UniProt Q96SW2); test: Cereblon Binding Assay (AlphaLISA Human Cereblon Binding Kit, competition); conditions: 10 μM top dose, biotin-labeled ligand competition; read-out: CRBN IC50
Experimental: Cereblon binding was measured in vitro using an AlphaLISA® Human Cereblon Binding Kit (PerkinElmer, Waltham, MA) according to the manufacturer's protocol (“Alpha” refers to Amplified Luminescent Proximity Homogeneous Assay). In this assay, donor beads and acceptor beads come into proximity through ligand binding to CRBN protein. Excitation of the donor beads provokes the release of singlet oxygen that triggers a cascade of energy transfer reactions to the acceptor beads, resulting in a sharp peak in light emission at 615 nm.
Specifically, nickel chelate acceptor beads (PerkinElmer AL108M) were used to capture a 6XHIS-tagged CRBN protein, and streptavidin-coated donor beads (PerkinElmer 6760002) were used to capture 50 nM biotinylated ligand. Each well included the following: sample or control; HIS-tagged CRBN protein; biotinylated ligand; nickel chelate acceptor beads; and streptavidin donor beads.
Competition Assay: Test compounds in 100% dimethyl sulfoxide were plated onto white, low volume 384 well plates (PerkinElmer Proxiplate 384 plus # 6008289) using an Labcyte Echo acoustic dispenser, in an 11-point dose curve and 3-fold dilution scheme. […] Plates were incubated for 30 minutes at room temperature.
Detection: 10 μL detection reagents were added in low light conditions containing nickel chelate acceptor beads and streptavidin donor beads (Perkin Elmer 6760002), resulting in a final concentration 20 ng/ml. Plates were incubated 1 hour and read on a PerkinElmerTM Envision™ plate reader (680 nm excitation and […] settings). The IC50 of each compound was determined by calculating percent inhibition from no drug and no protein controls, and the Ki of each compound was calculated using the Cheng-Prusoff transformation. From the IC50 values were determined. The IC50 values are reported in Table 2 in the CRBN IC50 (nM) column.

| Compound | DC50 [1] | IC50 [2] |
| --- | --- | --- |
| Cc1cc(-c2cc(Nc3ccc(N4CCN(CCc5ccc(N6CCC(=O)NC6=O)cc5)C[C@@H]4C)cn3)ncn2)ccc1[C@@H](C)NC(=O)c1nc(C(C)(C)C)no1 [Example 1, 3-tert-butyl-N-[(1R)-1-{4-[6-({5-[(2S)-4-{2-[4-(2,4-dioxo-1,3-diazinan-1-yl)phenyl]ethyl}-2-methylpiperazin-1-yl]pyridin-2-yl}amino)pyrimidin-4-yl]-2-methylphenyl}ethyl]-1,2,4-oxadiazole-5-carboxamide] | 4.08 nM | 1260 nM |
| Cc1cc(-c2cc(Nc3ccc(N4CCN(CCc5ccc(N6CCC(=O)NC6=O)cc5)C[C@H]4C)cn3)ncn2)ccc1[C@@H](C)NC(=O)c1nc(C(C)(C)C)no1 [Example 2, 3-tert-butyl-N-[(1R)-1-{4-[6-({5-[(2R)-4-{2-[4-(2,4-dioxo-1,3-diazinan-1-yl)phenyl]ethyl}-2-methylpiperazin-1-yl]pyridin-2-yl}amino)pyrimidin-4-yl]-2-methylphenyl}ethyl]-1,2,4-oxadiazole-5-carboxamide] | 5.93 nM | 749 nM |
| Cc1cc(-c2cc(Nc3ccc(N4CCN(CCc5ccc(N6CCC(=O)NC6=O)c(F)c5)C[C@@H]4C)cn3)ncn2)ccc1[C@@H](C)NC(=O)c1nc(C(C)(C)C)no1 [Example 4, 3-tert-butyl-N-[(1R)-1-{4-[6-({5-[(2S)-4-{2-[4-(2,4-dioxo-1,3-diazinan-1-yl)-3-fluorophenyl]ethyl}-2-methylpiperazin-1-yl]pyridin-2-yl}amino)pyrimidin-4-yl]-2-methylphenyl}ethyl]-1,2,4-oxadiazole-5-carboxamide] | 7.62 nM | ≥ 10000 nM |
| Cc1cc(-c2cc(Nc3ccc(N4CCN(CCc5ccc(N6CCC(=O)NC6=O)c(F)c5)C[C@H]4C)cn3)ncn2)ccc1[C@@H](C)NC(=O)c1nc(C(C)(C)C)no1 [Example 5, 3-tert-butyl-N-[(1R)-1-{4-[6-({5-[(2R)-4-{2-[4-(2,4-dioxo-1,3-diazinan-1-yl)-3-fluorophenyl]ethyl}-2-methylpiperazin-1-yl]pyridin-2-yl}amino)pyrimidin-4-yl]-2-methylphenyl}ethyl]-1,2,4-oxadiazole-5-carboxamide] | 6 nM | 648 nM |
| CC[C@H]1CN(CCc2ccc(N3CCC(=O)NC3=O)c(F)c2)CCN1c1ccc(Nc2cc(-c3ccc([C@@H](C)NC(=O)c4nc(C(C)(C)C)no4)c(C)c3)ncn2)nc1 [Example 7, 3-tert-butyl-N-[(1R)-1-{4-[6-({5-[(2S)-4-{2-[4-(2,4-dioxo-1,3-diazinan-1-yl)-3-fluorophenyl]ethyl}-2-ethylpiperazin-1-yl]pyridin-2-yl}amino)pyrimidin-4-yl]-2-methylphenyl}ethyl]-1,2,4-oxadiazole-5-carboxamide] | 18.7 nM | 609 nM |
| Cc1cc(-c2cc(Nc3ccc(N4CCN(CCc5ccc(N6CCC(=O)NC6=O)cc5)CC4(C)C)cn3)ncn2)ccc1[C@@H](C)NC(=O)c1nc(C(C)(C)C)no1 [Example 9, 3-tert-butyl-N-{(1R)-1-[4-(6-{[5-(4-{2-[4-(2,4-dioxo-1,3-diazinan-1-yl)phenyl]ethyl}-2,2-dimethylpiperazin-1-yl)pyridin-2-yl]amino}pyrimidin-4-yl)-2-methylphenyl]ethyl}-1,2,4-oxadiazole-5-carboxamide] | 9.61 nM | 658 nM |
| Cc1cc(-c2cc(Nc3ccc(N4CCN(CCc5ccc(N6CCC(=O)NC6=O)cc5)C[C@@H]4C(C)C)cn3)ncn2)ccc1[C@@H](C)NC(=O)c1nc(C(C)(C)C)no1 [Example 13, 3-tert-butyl-N-[(1R)-1-{4-[6-({5-[(2S)-4-{2-[4-(2,4-dioxo-1,3-diazinan-1-yl)phenyl]ethyl}-2-(propan-2-yl)piperazin-1-yl]pyridin-2-yl}amino)pyrimidin-4-yl]-2-methylphenyl}ethyl]-1,2,4-oxadiazole-5-carboxamide] | 17.3 nM | ≥ 10000 nM |
| C[C@@H](NC(=O)c1nc(C(C)(C)C)no1)c1ccc(-c2cc(Nc3ccc(N4CCN(CCc5ccc(N6CCC(=O)NC6=O)cc5)C[C@@H]4C)cn3)ncn2)cc1Cl [Example 14, 3-tert-butyl-N-[(1R)-1-{2-chloro-4-[6-({5-[(2S)-4-{2-[4-(2,4-dioxo-1,3-diazinan-1-yl)phenyl]ethyl}-2-methylpiperazin-1-yl]pyridin-2-yl}amino)pyrimidin-4-yl]phenyl}ethyl]-1,2,4-oxadiazole-5-carboxamide] | 7.91 nM | 2330 nM |
| Cc1cc(-c2cc(Nc3ccc(N4CCN(CCc5ccc(N6CCC(=O)NC6=O)cc5)C[C@@H]4C)cc3)ncn2)ccc1[C@@H](C)NC(=O)c1nc(C(C)(C)C)no1 [Example 18] | 15.6 nM | 1250 nM |

More lines, in order of falling DC50 [1], values ahead:

| DC50 [1] | IC50 [2] | Compound |
| --- | --- | --- |
| 4.04 nM | 3380 nM | CC[C@@H]1CN(CCc2ccc(N3CCC(=O)NC3=O)cc2)CCN1c1ccc(Nc2cc(-c3ccc([C@@H](C)NC(=O)c4nc(C(C)(C)C)no4)c(C)c3)ncn2)nc1 [Example 8, 3-tert-butyl-N-[(1R)-1-{4-[6-({5-[(2R)-4-{2-[4-(2,4-dioxo-1,3-diazinan-1-yl)phenyl]ethyl}-2-ethylpiperazin-1-yl]pyridin-2-yl}amino)pyrimidin-4-yl]-2-methylphenyl}ethyl]-1,2,4-oxadiazole-5-carboxamide] |
| 3 nM | ≥ 10000 nM | Cc1cc(-c2cc(Nc3ccc(CCN4CCN(c5ccc(N6CCC(=O)NC6=O)cc5)CC4)cn3)ncn2)ccc1[C@@H](C)NC(=O)c1nc(C(C)(C)C)no1 [Example 19] |
| 2.88 nM | 9570 nM | Cc1cc(-c2cc(Nc3ccc(N4CCN(CCc5ccc(N6CCC(=O)NC6=O)cc5)CC4)cn3)ncn2)ccc1[C@@H](C)NC(=O)c1nc(C(C)(C)C)no1 [Example 3, 3-tert-butyl-N-{(1R)-1-[4-(6-{[5-(4-{2-[4-(2,4-dioxo-1,3-diazinan-1-yl)phenyl]ethyl}piperazin-1-yl)pyridin-2-yl]amino}pyrimidin-4-yl)-2-methylphenyl]ethyl}-1,2,4-oxadiazole-5-carboxamide] |
| 2.45 nM | 378 nM | CC[C@H]1CN(CCc2ccc(N3CCC(=O)NC3=O)cc2)CCN1c1ccc(Nc2cc(-c3ccc([C@@H](C)NC(=O)c4nc(C(C)(C)C)no4)c(C)c3)ncn2)nc1 [Example 6, 3-tert-butyl-N-[(1R)-1-{4-[6-({5-[(2S)-4-{2-[4-(2,4-dioxo-1,3-diazinan-1-yl)phenyl]ethyl}-2-ethylpiperazin-1-yl]pyridin-2-yl}amino)pyrimidin-4-yl]-2-methylphenyl}ethyl]-1,2,4-oxadiazole-5-carboxamide] |
| 2.27 nM | 2010 nM | Cc1cc(-c2cc(Nc3ccc(N4CCN(CCc5ccc(N6CCC(=O)NC6=O)cc5)CC4)cn3)ncn2)c(F)cc1[C@@H](C)NC(=O)c1nc(C(C)(C)C)no1 [Example 12, 3-tert-butyl-N-{(1R)-1-[4-(6-{[5-(4-{2-[4-(2,4-dioxo-1,3-diazinan-1-yl)phenyl]ethyl}piperazin-1-yl)pyridin-2-yl]amino}pyrimidin-4-yl)-5-fluoro-2-methylphenyl]ethyl}-1,2,4-oxadiazole-5-carboxamide] |
